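1) Cells in 96-well plates. 2) Compound, 48 h, 5 concentrations. 3) Linear interpolation between surrounding doses. 4) Unreached endpoint = highest concentration. TGI denotes the concentration required for complete inhibition of growth.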
What was measured:
Assay in all cases: growth of human tumour cells (NCI), 48 h
SR leukemia = system: SR leukemia
HCT-15 colon = system: HCT-15 colon
RXF 393 renal = system: RXF 393 renal
HL-60(TB) leukemia = system: HL-60(TB) leukemia
PC-3 prostate = system: PC-3 prostate
NCI-H226 lung = system: NCI-H226 lung
DU-145 prostate = system: DU-145 prostate
SNB-19 CNS = system: SNB-19 CNS
COLO 205 colon = system: COLO 205 colon
CCRF-CEM leukemia = system: CCRF-CEM leukemia
U251 CNS = system: U251 CNS
HT29 colon = system: HT29 colon
NCI/ADR-RES ovarian = system: NCI/ADR-RES ovarian

SMILES: CCC1(C)N=C(c2cnccn2)NN1c1ccc(Cl)cc1 (stereo not given)
- TGI (SR leukemia): 76.2 µM
- TGI (HCT-15 colon): > 100 µM
- TGI (RXF 393 renal): > 100 µM
- TGI (HL-60(TB) leukemia): > 100 µM
- TGI (PC-3 prostate): > 100 µM
- TGI (NCI-H226 lung): > 100 µM
- TGI (DU-145 prostate): > 100 µM
- TGI (SNB-19 CNS): > 100 µM
- TGI (COLO 205 colon): > 100 µM
- TGI (CCRF-CEM leukemia): 59.9 µM
- TGI (U251 CNS): > 100 µM
- TGI (HT29 colon): > 100 µM
- TGI (NCI/ADR-RES ovarian): > 100 µM

SMILES: CC1=NN2C(=N)/C(=C/c3ccco3)C(=O)N=C2S1
- TGI (SR leukemia): > 100 µM
- TGI (HCT-15 colon): > 100 µM
- TGI (RXF 393 renal): > 100 µM
- TGI (HL-60(TB) leukemia): > 100 µM
- TGI (PC-3 prostate): > 100 µM
- TGI (NCI-H226 lung): > 100 µM
- TGI (DU-145 prostate): > 100 µM
- TGI (SNB-19 CNS): > 100 µM
- TGI (COLO 205 colon): > 100 µM
- TGI (CCRF-CEM leukemia): > 100 µM
- TGI (U251 CNS): > 100 µM
- TGI (HT29 colon): > 100 µM
- TGI (NCI/ADR-RES ovarian): > 100 µM

SMILES: c1cc2nnnn2nc1N1CCCC1
- TGI (SR leukemia): > 100 µM
- TGI (HCT-15 colon): > 100 µM
- TGI (RXF 393 renal): > 100 µM
- TGI (HL-60(TB) leukemia): > 100 µM
- TGI (PC-3 prostate): > 100 µM
- TGI (NCI-H226 lung): > 100 µM
- TGI (DU-145 prostate): > 100 µM
- TGI (SNB-19 CNS): > 100 µM
- TGI (COLO 205 colon): > 100 µM
- TGI (CCRF-CEM leukemia): > 100 µM
- TGI (U251 CNS): > 100 µM
- TGI (HT29 colon): > 100 µM
- TGI (NCI/ADR-RES ovarian): > 100 µM

SMILES: N#Cc1nc(-c2cccs2)oc1N
- TGI (SR leukemia): > 100 µM
- TGI (HCT-15 colon): > 100 µM
- TGI (RXF 393 renal): > 100 µM
- TGI (HL-60(TB) leukemia): > 100 µM
- TGI (PC-3 prostate): > 100 µM
- TGI (NCI-H226 lung): > 100 µM
- TGI (DU-145 prostate): > 100 µM
- TGI (SNB-19 CNS): > 100 µM
- TGI (COLO 205 colon): > 100 µM
- TGI (CCRF-CEM leukemia): > 100 µM
- TGI (U251 CNS): > 100 µM
- TGI (HT29 colon): > 100 µM
- TGI (NCI/ADR-RES ovarian): > 100 µM

SMILES: CCn1nc2c3c(ncn3C(C)(C)O2)c1=O
- TGI (SR leukemia): > 100 µM
- TGI (HCT-15 colon): > 100 µM
- TGI (RXF 393 renal): > 100 µM
- TGI (HL-60(TB) leukemia): > 100 µM
- TGI (PC-3 prostate): > 100 µM
- TGI (NCI-H226 lung): > 100 µM
- TGI (DU-145 prostate): > 100 µM
- TGI (SNB-19 CNS): > 100 µM
- TGI (COLO 205 colon): > 100 µM
- TGI (CCRF-CEM leukemia): > 100 µM
- TGI (U251 CNS): > 100 µM
- TGI (HT29 colon): > 100 µM
- TGI (NCI/ADR-RES ovarian): > 100 µM

SMILES: C1CNCCNCCN1
- TGI (SR leukemia): > 100 µM
- TGI (HCT-15 colon): > 100 µM
- TGI (RXF 393 renal): > 100 µM
- TGI (HL-60(TB) leukemia): > 100 µM
- TGI (PC-3 prostate): > 100 µM
- TGI (NCI-H226 lung): > 100 µM
- TGI (DU-145 prostate): > 100 µM
- TGI (SNB-19 CNS): > 100 µM
- TGI (COLO 205 colon): > 100 µM
- TGI (CCRF-CEM leukemia): > 100 µM
- TGI (U251 CNS): > 100 µM
- TGI (HT29 colon): > 100 µM
- TGI (NCI/ADR-RES ovarian): > 100 µM

SMILES: Cc1ccc(/C(O)=C/C(=O)C(=O)/C=C(\O)c2ccc(C)cc2C)c(C)c1
- TGI (SR leukemia): 4.8 µM
- TGI (HCT-15 colon): 4.47 µM
- TGI (RXF 393 renal): 4.22 µM
- TGI (HL-60(TB) leukemia): 0.58 µM
- TGI (PC-3 prostate): 5.64 µM
- TGI (NCI-H226 lung): 4.51 µM
- TGI (DU-145 prostate): 5.43 µM
- TGI (SNB-19 CNS): 5.67 µM
- TGI (COLO 205 colon): 3.66 µM
- TGI (CCRF-CEM leukemia): 3.17 µM
- TGI (U251 CNS): 3.49 µM
- TGI (HT29 colon): > 20.8 µM
- TGI (NCI/ADR-RES ovarian): 4.12 µM

SMILES: Nc1cccc(Nc2nc3ccccc3nc2NS(=O)(=O)c2ccccc2)c1
- TGI (SR leukemia): 57.8 µM
- TGI (HCT-15 colon): 74.2 µM
- TGI (RXF 393 renal): 38.7 µM
- TGI (HL-60(TB) leukemia): 46.6 µM
- TGI (PC-3 prostate): 49.7 µM
- TGI (NCI-H226 lung): > 100 µM
- TGI (DU-145 prostate): > 100 µM
- TGI (SNB-19 CNS): 62.2 µM
- TGI (COLO 205 colon): 29.7 µM
- TGI (CCRF-CEM leukemia): 46.7 µM
- TGI (U251 CNS): 35.3 µM
- TGI (HT29 colon): 62.6 µM
- TGI (NCI/ADR-RES ovarian): > 100 µM

SMILES: CN(O)C(=O)c1cccc(Cl)c1
- TGI (SR leukemia): > 100 µM
- TGI (HCT-15 colon): > 100 µM
- TGI (RXF 393 renal): > 100 µM
- TGI (HL-60(TB) leukemia): > 100 µM
- TGI (PC-3 prostate): > 100 µM
- TGI (NCI-H226 lung): > 100 µM
- TGI (DU-145 prostate): > 100 µM
- TGI (SNB-19 CNS): > 100 µM
- TGI (COLO 205 colon): > 100 µM
- TGI (CCRF-CEM leukemia): > 100 µM
- TGI (U251 CNS): > 100 µM
- TGI (HT29 colon): > 100 µM
- TGI (NCI/ADR-RES ovarian): > 100 µM

SMILES: C/C=C/C(O)P1(=O)N(Cc2ccccc2)[C@@H]2CCCC[C@H]2N1Cc1ccccc1 (stereo not given in full)
- TGI (SR leukemia): > 25 µM
- TGI (HCT-15 colon): > 25 µM
- TGI (RXF 393 renal): > 25 µM
- TGI (HL-60(TB) leukemia): > 25 µM
- TGI (PC-3 prostate): > 25 µM
- TGI (NCI-H226 lung): > 25 µM
- TGI (DU-145 prostate): > 25 µM
- TGI (SNB-19 CNS): > 25 µM
- TGI (COLO 205 colon): > 25 µM
- TGI (CCRF-CEM leukemia): > 25 µM
- TGI (U251 CNS): > 25 µM
- TGI (HT29 colon): > 25 µM
- TGI (NCI/ADR-RES ovarian): > 25 µM

SMILES: O=c1c2ncn(COCCCl)c2n(-c2ccccc2)c(=S)n1-c1ccccc1
- TGI (SR leukemia): > 100 µM
- TGI (HCT-15 colon): > 100 µM
- TGI (RXF 393 renal): > 100 µM
- TGI (HL-60(TB) leukemia): > 100 µM
- TGI (PC-3 prostate): > 100 µM
- TGI (NCI-H226 lung): > 100 µM
- TGI (DU-145 prostate): > 100 µM
- TGI (SNB-19 CNS): > 100 µM
- TGI (COLO 205 colon): > 100 µM
- TGI (CCRF-CEM leukemia): > 100 µM
- TGI (U251 CNS): > 100 µM
- TGI (HT29 colon): > 100 µM
- TGI (NCI/ADR-RES ovarian): > 100 µM

SMILES: CCC1(C(=O)OC(C)(C)C)OC12C(C)CCCC2C (stereo not given)
- TGI (SR leukemia): 38.3 µM
- TGI (HCT-15 colon): > 100 µM
- TGI (RXF 393 renal): 36.4 µM
- TGI (HL-60(TB) leukemia): 37 µM
- TGI (PC-3 prostate): > 100 µM
- TGI (NCI-H226 lung): > 100 µM
- TGI (DU-145 prostate): > 100 µM
- TGI (SNB-19 CNS): > 100 µM
- TGI (COLO 205 colon): 63 µM
- TGI (CCRF-CEM leukemia): 39.8 µM
- TGI (U251 CNS): > 100 µM
- TGI (HT29 colon): > 100 µM
- TGI (NCI/ADR-RES ovarian): > 100 µM

SMILES: C=C1C(=O)CC2C(=O)C(C)(O)CC/C=C(\C)C(=O)CC12 (stereo not given)
- TGI (SR leukemia): > 55.1 µM
- TGI (HCT-15 colon): 37.7 µM
- TGI (RXF 393 renal): 40.3 µM
- TGI (HL-60(TB) leukemia): 8.87 µM
- TGI (PC-3 prostate): 83 µM
- TGI (NCI-H226 lung): > 77.3 µM
- TGI (DU-145 prostate): 42.2 µM
- TGI (SNB-19 CNS): > 100 µM
- TGI (COLO 205 colon): 27.4 µM
- TGI (CCRF-CEM leukemia): 23.5 µM
- TGI (U251 CNS): > 100 µM
- TGI (HT29 colon): > 64.9 µM
- TGI (NCI/ADR-RES ovarian): > 100 µM

SMILES: COC(=O)C1=CC(=O)OC1(OO)c1ccccc1 (stereo not given)
- TGI (SR leukemia): > 100 µM
- TGI (HCT-15 colon): > 100 µM
- TGI (RXF 393 renal): > 100 µM
- TGI (HL-60(TB) leukemia): 20.4 µM
- TGI (PC-3 prostate): > 100 µM
- TGI (NCI-H226 lung): > 100 µM
- TGI (DU-145 prostate): > 100 µM
- TGI (SNB-19 CNS): > 100 µM
- TGI (COLO 205 colon): > 100 µM
- TGI (CCRF-CEM leukemia): 51.1 µM
- TGI (U251 CNS): > 100 µM
- TGI (HT29 colon): > 100 µM
- TGI (NCI/ADR-RES ovarian): > 100 µM

SMILES: CN(C)Cc1cc(C(=O)/C=C/c2ccccc2Cl)cc(CN(C)C)c1O
- TGI (SR leukemia): 35.5 µM
- TGI (HCT-15 colon): 36 µM
- TGI (RXF 393 renal): 41.7 µM
- TGI (HL-60(TB) leukemia): 27.2 µM
- TGI (PC-3 prostate): 29.2 µM
- TGI (NCI-H226 lung): 48.2 µM
- TGI (DU-145 prostate): 24.8 µM
- TGI (SNB-19 CNS): 27.2 µM
- TGI (COLO 205 colon): 18.5 µM
- TGI (CCRF-CEM leukemia): 8.82 µM
- TGI (U251 CNS): 27 µM
- TGI (HT29 colon): 9.94 µM
- TGI (NCI/ADR-RES ovarian): 63.6 µM
